Experimental data: patent US20170073337A1, “DIHYDROTHIAZINE AND DIHYDROOXAZINE DERIVATIVES HAVING BACE1 INHIBITORY ACTIVITY” (Shionogi & Co., Ltd., priority 2014, published 2017)

Experiments:
[1] = target: T1, P-gp (MDR1 expressing LLC-PK1 cells) (Homo sapiens, UniProt P08183); test: P-gp substrate test; assay type: in vitro ADME; conditions: net flux = Efflux Ratio in MDR1 expressing cells / Efflux Ratio in parent LLC-PK1 cells
T1 construct: host or cells: LLC-PK1
Procedure: • 1. Cell line: • a. MDR/LLC-PK1 (Becton Dickinson) • b. LLC-PK1 (Becton Dickinson) • 2. Reference substrates: • a Digoxin (2 μM)
1. […] After incubation for designed time at 37° C., an aliquot (50 μL) of transport buffer in the donor and receiver side were collected. Assay was performed by duplicate or triplicate. 3. Reference substrate and the present invention in the aliquot was quantified by LC/MS/MS.
Pc(cm/sec)−Permeated amount (pmol)/area of cell membrane (cm2)/initial concentration (nM)/incubation time (sec)
The efflux ratio was calculated using the following equation:
Efflux Ratio=Basolateral-to-Apical Pe/Apical-to-Basolateral Pe
The net flux was calculated using the following equation
Net flux=Efflux Ratio in MDK1 expressing cells/Efflux Ratio in parent cells

CYP2D6 = target: T2, CYP2D6 (Homo sapiens, UniProt P10635); test: CYP inhibition test (CYP2D6); assay type: in vitro ADME; conditions: pooled human liver microsomes; dextromethorphan O-demethylation
T2 construct: The commercially available pooled human liver microsomes are used as an enzyme resource; from tissue; host or cells: pooled human liver microsomes
Outline: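 Metabolite formation was quantified by LC/MS/MS: dextrorphan (2D6, 5 μmol/L dextromethorphan), terfenadine alcohol (3A4, 1 μmol/L terfenadine), 4′-hydroxymephenytoin (2C19, 50 μmol/L S-mephenytoin) and hydroxytolbutamide (2C9, 100 μmol/L tolbutamide). Reactions used NADPH-started pooled human liver microsomes (0.2 mg/mL) at 37 °C with compound at 1–20 μmol/L (four points). IC50 was calculated by logistic model relative to the DMSO control.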

[2] = Brain distribution studies; assay type: in vivo; conditions: rat, 30 minutes later, area ratio brain/plasma; for Kp at 0.5 h: brain / plasma, iv, 0.5 mg/mL/kg
Procedure: Compound of the present invention was intravenously administered to a rat at 0.5 mg/mL/kg dosage. 30 minutes later, all blood was drawn from the abdominal aorta under isoflurane anesthesia for death from exsanguination. […] The obtained blood was used as plasma after centrifuging. The control plasma was added to the brain sample at 1:1. The control brain homogenate was added to the plasma sample at 1:1. Each sample was measured using LC/MS/MS. The obtained area ratio (a brain/plasma) was used for the brain Kp value.

P-gp = target: T3, P-gp (Mus musculus, UniProt P21447); test: P-gp substrate test using mdr1a (−/−) B6 mice; assay type: in vivo; conditions: Kp in KO mouse (mdr1a (−/−) B6) / Kp in Wild mouse; for Kp at 2 h: mdr1a (−/−) B6 (KO) and C57BL/6J (wild), mouse, brain / plasma, po, 2 mg/kg, read-out: Kp ratio (2 mg/kg, po, 2 hr)
T3 construct: from tissue; host or cells: living mice (brain/plasma distribution), wild type versus mdr1a (−/−)
Procedure: Animal: mdrla (−/−) B6 mice (KO mouse) or […] mice (Wild mouse)
1. Animals may be fed prior to dosing of the compounds of the present invention. 2. The compounds of the present invention were dosed to three animals for each time point and blood and brain samples were removed at selected time points (e.g. 15 min, 30 min, 1 hr, 2 hr, 4 hr, 6 hr, 8 hr, or 24 hr) after dosing. Blood (0.3-0.7 mL) was collected via trunk blood collection with syringe containing anticoagulants (EDTA and heparin). Blood and tissue (e.g. brain) samples were immediately placed on melting ice. 3. Blood samples were centrifuged (1780×g for 10 minutes) for cell removal to obtain plasma. Then, plasma samples were transferred to a clean tube and stored in a −70° C. freezer until analysis. 4. Tissue (e.g. brain) samples were homogenized at a 1:3 ratio of tissue weight to ml of stilled water and transferred to a clean tube and stored in a −70° C. freezer until analysis. 5. Plasma and tissue (e.g. brain) samples were prepared using protein prceipitation and analyzed by LC/MS/MS. The analytical method was calibrated by including a standard curve constructed with blank plasma or brain samples and known quantities of analyte. Quality control samples were included to monitor the accuracy and precision of the methodology. 6. Plasma and brain concentration values (ng/mL and ng/g) were introduced into an appropriate tool used for calculating the pharmacokinetic parameters. A common platform was the WinNonlin (Registered trademark) pharmacokinetic software modeling program.
Kp: Tissue to Plasma concentration ratio Kp ratio=Kp in KO mouse/Kp in Wild mouse KO/Wild ratio of AUC Tissue/AUC Plasma ={AUC Tissue/AUC Plasma (KO mouse)}/{AUC Tissue/AUC Plasma (Wild mouse)}

T2 sequence (P10635 whole entry): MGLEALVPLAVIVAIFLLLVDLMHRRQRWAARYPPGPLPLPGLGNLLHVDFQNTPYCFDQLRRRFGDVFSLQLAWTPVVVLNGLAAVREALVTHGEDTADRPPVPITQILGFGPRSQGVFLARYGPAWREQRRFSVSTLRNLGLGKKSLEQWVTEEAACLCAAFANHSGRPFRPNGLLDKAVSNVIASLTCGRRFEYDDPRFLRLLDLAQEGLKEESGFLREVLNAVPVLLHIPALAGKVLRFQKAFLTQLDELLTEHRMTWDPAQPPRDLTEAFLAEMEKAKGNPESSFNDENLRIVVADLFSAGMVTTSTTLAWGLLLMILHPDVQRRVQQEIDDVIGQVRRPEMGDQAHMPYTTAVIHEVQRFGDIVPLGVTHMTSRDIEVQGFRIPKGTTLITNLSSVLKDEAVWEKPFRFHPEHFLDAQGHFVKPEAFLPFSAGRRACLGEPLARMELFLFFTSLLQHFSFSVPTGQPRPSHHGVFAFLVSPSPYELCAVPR
T1 sequence (P08183 whole entry): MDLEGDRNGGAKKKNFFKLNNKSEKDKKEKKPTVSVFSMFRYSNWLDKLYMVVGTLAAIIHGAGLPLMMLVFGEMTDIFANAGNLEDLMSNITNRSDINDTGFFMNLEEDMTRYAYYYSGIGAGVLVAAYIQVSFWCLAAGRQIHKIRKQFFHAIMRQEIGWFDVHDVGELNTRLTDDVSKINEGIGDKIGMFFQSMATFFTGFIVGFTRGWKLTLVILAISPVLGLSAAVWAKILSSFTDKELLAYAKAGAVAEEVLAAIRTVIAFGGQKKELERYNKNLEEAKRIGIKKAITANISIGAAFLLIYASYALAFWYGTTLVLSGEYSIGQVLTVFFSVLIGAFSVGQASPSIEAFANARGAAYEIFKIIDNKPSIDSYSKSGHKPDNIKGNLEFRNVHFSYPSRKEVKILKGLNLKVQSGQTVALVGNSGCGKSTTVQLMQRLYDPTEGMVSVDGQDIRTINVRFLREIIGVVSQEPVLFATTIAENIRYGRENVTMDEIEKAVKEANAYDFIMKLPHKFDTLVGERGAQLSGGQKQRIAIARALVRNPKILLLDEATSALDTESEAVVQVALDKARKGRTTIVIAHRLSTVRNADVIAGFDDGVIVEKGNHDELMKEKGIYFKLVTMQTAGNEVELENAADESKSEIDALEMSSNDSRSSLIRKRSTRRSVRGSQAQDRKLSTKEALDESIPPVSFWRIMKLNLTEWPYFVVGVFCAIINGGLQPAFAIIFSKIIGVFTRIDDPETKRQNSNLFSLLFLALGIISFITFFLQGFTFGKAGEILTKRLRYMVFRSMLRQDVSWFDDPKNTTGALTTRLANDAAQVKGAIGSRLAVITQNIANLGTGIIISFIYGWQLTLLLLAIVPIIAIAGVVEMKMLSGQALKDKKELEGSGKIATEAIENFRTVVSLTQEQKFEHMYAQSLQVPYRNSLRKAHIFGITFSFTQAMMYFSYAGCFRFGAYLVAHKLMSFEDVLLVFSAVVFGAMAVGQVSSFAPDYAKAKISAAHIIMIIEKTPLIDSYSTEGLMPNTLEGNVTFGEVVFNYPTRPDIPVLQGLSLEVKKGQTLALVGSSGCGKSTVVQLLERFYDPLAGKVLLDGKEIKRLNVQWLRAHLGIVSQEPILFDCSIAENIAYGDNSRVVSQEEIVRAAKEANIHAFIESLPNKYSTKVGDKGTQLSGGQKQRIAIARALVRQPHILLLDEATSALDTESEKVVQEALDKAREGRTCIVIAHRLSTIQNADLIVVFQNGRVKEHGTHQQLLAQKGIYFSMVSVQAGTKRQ
T3 sequence (P21447 whole entry): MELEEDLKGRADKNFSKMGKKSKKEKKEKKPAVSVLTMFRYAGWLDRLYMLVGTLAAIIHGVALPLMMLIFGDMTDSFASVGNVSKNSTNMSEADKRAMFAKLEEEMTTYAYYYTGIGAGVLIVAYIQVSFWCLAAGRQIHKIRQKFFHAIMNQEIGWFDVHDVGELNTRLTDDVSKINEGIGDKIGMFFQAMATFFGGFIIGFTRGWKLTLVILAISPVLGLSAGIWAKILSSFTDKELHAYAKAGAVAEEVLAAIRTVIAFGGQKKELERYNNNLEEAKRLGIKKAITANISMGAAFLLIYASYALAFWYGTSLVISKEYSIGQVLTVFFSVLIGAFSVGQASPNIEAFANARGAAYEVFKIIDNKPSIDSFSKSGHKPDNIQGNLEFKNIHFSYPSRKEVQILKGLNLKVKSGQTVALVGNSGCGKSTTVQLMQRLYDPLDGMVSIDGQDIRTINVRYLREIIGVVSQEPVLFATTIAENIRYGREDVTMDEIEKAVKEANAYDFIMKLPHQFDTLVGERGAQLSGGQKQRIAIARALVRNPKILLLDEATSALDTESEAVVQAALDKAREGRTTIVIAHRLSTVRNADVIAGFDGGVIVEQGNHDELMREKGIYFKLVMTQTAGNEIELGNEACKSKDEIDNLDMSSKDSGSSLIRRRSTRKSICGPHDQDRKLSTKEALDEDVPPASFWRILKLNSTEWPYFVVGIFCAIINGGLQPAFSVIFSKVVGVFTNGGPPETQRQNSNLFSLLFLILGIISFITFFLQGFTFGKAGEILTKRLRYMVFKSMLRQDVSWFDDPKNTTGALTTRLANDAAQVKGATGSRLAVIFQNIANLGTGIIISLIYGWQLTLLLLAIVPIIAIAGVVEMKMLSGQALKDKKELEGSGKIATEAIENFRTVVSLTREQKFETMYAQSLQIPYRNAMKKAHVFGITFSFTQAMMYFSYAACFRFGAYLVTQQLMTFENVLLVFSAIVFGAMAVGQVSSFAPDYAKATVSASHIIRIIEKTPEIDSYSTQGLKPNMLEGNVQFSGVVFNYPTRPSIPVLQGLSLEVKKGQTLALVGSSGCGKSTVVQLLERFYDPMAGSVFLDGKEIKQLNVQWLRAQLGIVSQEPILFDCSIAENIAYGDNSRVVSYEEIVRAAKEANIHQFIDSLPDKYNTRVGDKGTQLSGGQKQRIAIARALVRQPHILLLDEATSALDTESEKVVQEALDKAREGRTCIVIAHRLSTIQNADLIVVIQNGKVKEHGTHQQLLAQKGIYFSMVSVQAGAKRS

| SMILES | ER ratio (Cell: MDR1/LLC-PK1) [1] | IC50 (CYP2D6) [µM] | Kp at 0.5 h [2] | Kp at 2 h (P-gp) | Kp Brain ([2]; intravenous 0.5 mg/mL/kg) | Kp ratio (2 mg/kg, po, 2 hr) (P-gp) |
| --- | --- | --- | --- | --- | --- | --- |
| C[C@H]1SC(N)=N[C@](C)(c2nc(NC(=O)c3ccc(C#N)cn3)ccc2F)[C@H]1F [Compound I-1] | 1.2 | ≥ 20 | 2 | 4.12 | – | – |
| C[C@H]1SC(N)=N[C@](C)(c2nc(NC(=O)c3ccc(F)cn3)ccc2F)[C@H]1F [Compound I-2] | – | – | 2.9 | 0.959 | – | – |
| C[C@H]1SC(N)=N[C@](C)(c2nc(NC(=O)c3cnc(OCF)cn3)ccc2F)[C@H]1F [Compound I-3] | – | – | 2.3 | 5.16 | – | – |
| C[C@]1(c2nc(NC(=O)c3ccc(C#N)cn3)ccc2F)N=C(N)S[C@H](CF)[C@@H]1F [Compound I-4] | – | ≥ 20 | 2 | 2.92 | – | – |
| C[C@@]1(c2cc(NC(=O)c3ccc(C#N)cn3)ccc2F)C[C@@](C)(C(F)(F)F)OC(N)=N1 [Compound I-7] | – | – | 2 | 4.21 | – | – |
| COc1cnc(C(=O)Nc2ccc(F)c([C@@]3(C)N=C(N)S[C@H](C)[C@@H]3F)c2)cn1 [Compound I-8] | 1.3 | – | 1.8 | 2.22 | – | – |
| C[C@H]1[C@@H](C(F)(F)F)OC(N)=N[C@]1(C)c1cc(NC(=O)c2ccc(C#N)cn2)ccc1F [Compound I-28] | 1.2 | ≥ 20 | – | 5.41 | – | – |
| C[C@H]1[C@@H](C(F)(F)F)OC(N)=N[C@]1(C)c1cc(NC(=O)c2cnc(OCF)cn2)ccc1F [Compound I-30] | – | – | 3.2 | 3.63 | – | – |
| C[C@]1(c2cc(NC(=O)c3ccc(C#N)cn3)ccc2F)N=C(N)O[C@H]2[C@@H]1OCC2(F)F [Compound I-35] | 2.1 | ≥ 20 | – | 5.15 | – | – |
| CC(F)(F)[C@H]1OC(N)=N[C@](C)(c2cc(NC(=O)c3ccc(C#N)cn3)ccc2F)[C@H]1F [Compound I-40] | 1.1 | ≥ 20 | 0.74 | 6.97 | – | – |
| C[C@H]1[C@@H](C(F)(F)F)OC(N)=N[C@]1(C)c1cc(NC(=O)c2cnc(OCF)cn2)ccc1F [Compound I-41] | 1.4 | – | – | – | 1.9 | 2.66 |
| COc1cnc(C(=O)Nc2ccc(F)c([C@@]3(C)N=C(N)O[C@H](C(C)(F)F)[C@@H]3F)c2)cn1 [Compound I-42] | 1.5 | – | 2 | 2.07 | – | – |
| C[C@H]1SC(N)=N[C@](C)(c2cc(NC(=O)c3cnc(OCC(F)(F)F)cn3)ccc2F)[C@H]1F [Compound I-46] | 1.5 | ≥ 10 | 1.9 | 6.13 | – | – |
| C[C@H]1SC(N)=N[C@](C)(c2cc(NC(=O)c3cnc(OC(F)F)cn3)ccc2F)[C@H]1F [Compound I-47] | 1.3 | – | 1.1 | 2.12 | – | – |
| C[C@H]1SC(N)=N[C@](C)(c2cc(NC(=O)c3cnc(OCC(F)F)cn3)ccc2F)[C@H]1F [Compound I-48] | 1.1 | ≥ 10 | 2.1 | 5.57 | – | – |
| C[C@H]1SC(N)=N[C@](C)(c2cc(NC(=O)c3ccc(F)cn3)ccc2F)[C@H]1F [Compound I-116] | 1.1 | ≥ 20 | 1.8 | 4.54 | – | – |
